Counter-ions that a name gives are not always drawn.
Legend:
Type in all cases: cell-based
adenosine A2b receptor = adenosine A2b receptor (Homo sapiens (Human), UniProt P29275); assay: Indirect determination of adenosine agonism by gene expression (luciferase reporter), A2b cells; settings: CHO cells stably transfected with adenosine A2b receptor, 50% of maximum stimulation
Text: (§1) B-1. Indirect Determination of the Adenosine Agonism by Way of Gene Expression
(§2) Cells of the CHO (Chinese Hamster Ovary) permanent line are transfected stably with the cDNA for the adenosine receptor subtypes A1, A2a and A2b. The adenosine A1 receptors are coupled to the adenylate cyclase by way of Gi proteins, while the adenosine A2a and A2b receptors are coupled by way of Gs proteins. In correspondence with this, the formation of cAMP in the cell is inhibited or stimulated, respectively. After that, expression of the luciferase is modulated by way of a cAMP-dependent promoter. The luciferase test is optimized, with the aim of high sensitivity and reproducibility, low variance and good suitability for implementation on a robot system, by varying several test parameters, such as cell density, duration of the growth phase and the test incubation, forskolin concentration and medium composition. The following test protocol is used for pharmacologically characterizing cells and for the robot-assisted substance screening:
(§3) The stock cultures are grown, at 37° C. and under 5% CO2, in DMEM/F12 medium containing 10% FCS (fetal calf serum) and in each case split 1:10 after 2-3 days. Test cultures are seeded in 384-well plates with 2000 cells per well and grown at 37° C. for approx. 48 hours. The medium is then replaced with a physiological sodium chloride solution (130 mM sodium chloride, 5 mM potassium chloride, 2 mM calcium chloride, 20 mM HEPES, 1 mM magnesium chloride hexahydrate, 5 mM sodium bicarbonate, pH 7.4). The substances to be tested, which are dissolved in DMSO, are pipetted into the test cultures (maximum final concentration of DMSO in the test mixture: 0.5%) in a dilution series of from 5×10^−11 M to 3×10^−6 M (final concentration). 10 minutes later, forskolin is added to the A1 cells and all the cultures are subsequently incubated at 37° C. for four hours. After that, 35 μl of a solution which is composed of 50% lysis reagent (30 mM disodium hydrogenphosphate, 10% glycerol, 3% TritonX100, 25 mM TrisHCl, 2 mM dithiotreitol (DTT), pH 7.8) and 50% luciferase substrate solution (2.5 mM ATP, 0.5 mM luciferin, 0.1 mM coenzyme A, 10 mM tricine, 1.35 mM magnesium sulfate, 15 mM DTT, pH 7.8) are added to the test cultures, which are shaken for approx. 1 minute and the luciferase activity is measured using a camera system. The EC50 values are determined, i.e., the concentrations at which 50% of the luciferase response is inhibited in the case of the A1 cell, and, respectively, 50% of the maximum stimulation with the corresponding substance is achieved in the case of the A2b and A2a cells. […] Pharmacol., 357, 1-9 (1998)].
(§4) Table A below lists the EC50 values of representative working examples for the receptor stimulation on adenosine A1, A2a and A2b receptor subtypes: […]

adenosine A1 receptor = adenosine A1 receptor (Homo sapiens (Human), UniProt P30542); assay: Indirect determination of adenosine agonism by gene expression (luciferase reporter), A1 cells; settings: CHO cells stably transfected with adenosine A1 receptor; 1 μM forskolin; 50% inhibition of luciferase response
Text: as §1, §2, §3, §4

adenosine A2a receptor = adenosine A2a receptor (Homo sapiens (Human), UniProt P29274); assay: Indirect determination of adenosine agonism by gene expression (luciferase reporter), A2a cells; settings: CHO cells stably transfected with adenosine A2a receptor, 50% of maximum stimulation
Text: as §1, §2, §3, §4

Chain of adenosine A2a receptor (P29274 whole entry): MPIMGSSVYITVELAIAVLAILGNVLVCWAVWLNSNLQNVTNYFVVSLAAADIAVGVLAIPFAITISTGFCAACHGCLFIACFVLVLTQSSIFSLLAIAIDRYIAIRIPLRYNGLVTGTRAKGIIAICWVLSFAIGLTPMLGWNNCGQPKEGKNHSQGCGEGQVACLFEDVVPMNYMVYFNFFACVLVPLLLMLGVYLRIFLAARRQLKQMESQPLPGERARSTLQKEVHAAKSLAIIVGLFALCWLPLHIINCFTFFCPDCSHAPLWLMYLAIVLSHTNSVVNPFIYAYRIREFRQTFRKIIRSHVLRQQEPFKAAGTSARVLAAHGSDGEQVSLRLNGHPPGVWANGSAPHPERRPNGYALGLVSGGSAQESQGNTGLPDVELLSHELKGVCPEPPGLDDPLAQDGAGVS
Chain of adenosine A2b receptor (P29275 whole entry): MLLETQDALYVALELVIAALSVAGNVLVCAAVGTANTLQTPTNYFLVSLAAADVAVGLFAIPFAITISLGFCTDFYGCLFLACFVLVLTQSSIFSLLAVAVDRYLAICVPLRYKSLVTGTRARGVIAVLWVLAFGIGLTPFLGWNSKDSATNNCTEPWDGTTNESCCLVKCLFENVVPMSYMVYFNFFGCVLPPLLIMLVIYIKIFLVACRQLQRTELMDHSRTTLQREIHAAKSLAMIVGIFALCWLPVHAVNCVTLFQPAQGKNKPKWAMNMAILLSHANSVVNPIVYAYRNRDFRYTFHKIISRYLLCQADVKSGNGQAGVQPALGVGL
Chain of adenosine A1 receptor (P30542 whole entry): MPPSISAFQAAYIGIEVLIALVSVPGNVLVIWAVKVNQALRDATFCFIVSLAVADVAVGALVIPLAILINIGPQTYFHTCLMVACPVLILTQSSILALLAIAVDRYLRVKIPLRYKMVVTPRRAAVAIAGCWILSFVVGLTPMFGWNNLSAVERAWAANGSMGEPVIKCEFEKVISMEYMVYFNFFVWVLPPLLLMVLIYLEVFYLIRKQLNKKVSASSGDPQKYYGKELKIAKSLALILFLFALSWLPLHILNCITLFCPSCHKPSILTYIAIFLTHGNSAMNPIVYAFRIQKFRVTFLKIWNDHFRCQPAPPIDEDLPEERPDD

SMILES | EC50 (adenosine A2b receptor) [nM] | EC50 (adenosine A1 receptor) [nM] | EC50 (adenosine A2a receptor) [nM]
CNC(=O)c1cc(C(C)Sc2nc(N)c(C#N)c(-c3ccc(OCC(F)(F)F)cc3)c2C#N)ccn1 (racemic) [Example 56, rac-4-[1-({6-Amino-3,5-dicyano-4-[4-(2,2,2-trifluoroethoxy)phenyl]pyridin-2-yl}sulfanyl)ethyl]-N-methylpyridine-2-carboxamide] | ≥ 3000 | 2.8 | ≥ 3000
CC(Sc1nc(N)c(C#N)c(-c2ccc(OCCO)cc2)c1C#N)c1cccc(C(N)=O)c1 (racemic) [Example 60, rac-3-[1-({6-Amino-3,5-dicyano-4-[4-(2-hydroxyethoxy)phenyl]pyridin-2-yl}sulfanyl)ethyl]-benzenecarboxamide] | 1440 | 0.4 | ≥ 3000
CNC(=O)c1cc(CSc2ncc(C#N)c(-c3ccc(OC)cc3)c2C#N)ccn1 [Example 31] | 708 | 1.6 | 707
CNC(=O)c1cc(CSc2ncc(C#N)c(-c3ccccc3)c2C#N)ccn1 [Example 32] | 2120 | 0.4 | –
CNC(=O)c1cc(CSc2nc(N)c(C#N)c(-c3ccc(OS(=O)(=O)N(C)C)cc3)c2C#N)ccn1 [Example 46] | 425 | 0.04 | 781
N#Cc1cnc(SCc2cccc(C(N)=O)c2)c(C#N)c1-c1ccccc1 [Example 65, 3-{[(3,5-Dicyano-4-phenylpyridin-2-yl)sulfanyl]methyl}benzenecarboxamide] | 571 | 3.3 | –
N#Cc1c(N)nc(OCc2ccnc(C(=O)NC3CC3)c2)c(C#N)c1-c1ccccc1 [Example 68] | 440 | 0.4 | 1740
CNC(=O)c1cc(CSc2nc(N3CC(O)C3)c(C#N)c(-c3ccccc3)c2C#N)ccn1 [Example 70, 4-({[3,5-Dicyano-6-(3-hydroxyazetidin-1-yl)-4-phenylpyridin-2-yl]sulfanyl}methyl)-N-methylpyridine-2-carboxamide] | 1450 | 0.2 | 272
CNC(=O)c1cc(CSc2nc(NCCO)c(C#N)c(-c3ccc(OCCO)nc3)c2C#N)ccn1 [Example 78] | 393 | 0.1 | 355
CNC(=O)c1cc(CSc2nc(NC[C@H](O)CO)c(C#N)c(-c3ccccc3)c2C#N)ccn1 [Example 83] | 593 | 0.2 | 2180
CCNC(=O)c1cccc(CSc2nc(N3CCCC3)c(C#N)c(-c3ccc(OCCO)cc3)c2C#N)c1 [Example 98, 3-[({3,5-Dicyano-4-[4-(2-hydroxyethoxy)phenyl]-6-pyrrolidin-1-ylpyridin-2-yl}sulfanyl)methyl]-N-ethylbenzenecarboxamide] | 600 | 0.3 | 1540

The next compounds have a lower EC50 (adenosine A2b receptor) than those just listed; values first:

EC50 (adenosine A2b receptor) [nM] | EC50 (adenosine A1 receptor) [nM] | EC50 (adenosine A2a receptor) [nM] | SMILES
262 | 0.3 | ≥ 3000 | CNC(=O)c1cccc(C(C)Sc2nc(N)c(C#N)c(-c3ccc(OCCO)cc3)c2C#N)c1 (racemic) [Example 62, rac-3-[1-({6-Amino-3,5-dicyano-4-[4-(2-hydroxyethoxy)phenyl]pyridin-2-yl}sulfanyl)ethyl]-N-methylbenzenecarboxamide]
71 | 0.06 | – | CNC(=O)c1cc(CSc2nc(N)c(C#N)c(-c3ccc4c(c3)OCCO4)c2C#N)ccn1 [Example 6]
32 | 0.1 | 460 | CNC(=O)c1cc(CSc2nc(N)c(C#N)c(-c3ccc(OCC(C)(C)O)cc3)c2C#N)ccn1 [Example 7]
106 | 0.8 | – | N#Cc1cnc(SCc2cccc(C(=O)O)c2)c(C#N)c1-c1ccccc1 [Example 15]
243 | 0.2 | 65 | CCOc1ccc(-c2c(C#N)c(N)nc(SCc3ccnc(C(=O)NC)c3)c2C#N)cc1 [Example 26]
122 | 0.4 | 1110 | CNC(=O)c1cc(CSc2ncc(C#N)c(-c3ccc(OCCO)cc3)c2C#N)ccn1 [Example 30]
169 | 0.04 | 114 | CNC(=O)c1cc(CSc2nc(N)c(C#N)c(-c3ccc(OCCN)cc3)c2C#N)ccn1 [Example 54, 4-[({6-Amino-4-[4-(2-aminoethoxy)phenyl]-3,5-dicyanopyridin-2-yl}sulfanyl)methyl]-N-methylpyridine-2-carboxamide trifluoroacetate]
268 | 0.4 | 402 | CNC(=O)c1cc(CSc2nc(N)c(C#N)c(-c3ccc(OCCNC(=O)[C@H](C)N)cc3)c2C#N)ccn1 [Example 55, 4-{[(4-{4-[2-(L-Alanylamino)ethoxy]phenyl}-6-amino-3,5-dicyanopyridin-2-yl)sulfanyl]methyl}-N-methylpyridine-2-carboxamide trifluoroacetate]
175 | 0.2 | 1010 | CNC(=O)c1cc(CSc2nc(N(C)CCO)c(C#N)c(-c3ccccc3)c2C#N)ccn1 [Example 75, 4-[({3,5-Dicyano-6-[(2-hydroxyethyl)(methyl)amino]-4-phenylpyridin-2-yl}sulfanyl)methyl]-N-methylpyridine-2-carboxamide]
204 | 0.4 | – | N#Cc1c(N)nc(SCc2cccc(C(=O)NC[C@@H](O)CO)c2)c(C#N)c1-c1ccc(F)cc1 [Example 96, 3-({[6-Amino-3,5-dicyano-4-(4-fluorophenyl)pyridin-2-yl]sulfanyl}methyl)-N-[(2R)-2,3-dihydroxypropyl]benzenecarboxamide]
163 | 0.2 | 440 | N#Cc1c(N)nc(SCc2cccc(C(=O)NCCN)c2)c(C#N)c1-c1ccccc1 [Example 101, 3-{[(6-Amino-3,5-dicyano-4-phenylpyridin-2-yl)sulfanyl]methyl}-N-(2-aminoethyl)benzenecarboxamide hydrochloride]
